Reference: article PMC6132053, “Virtual Screening and Biomolecular Interactions of CviR-Based Quorum Sensing Inhibitors Against Chromobacterium violaceum” (Frontiers in Cellular and Infection Microbiology, 2018)
Where two headings read alike, the source gives them in different places.

Target: T1, CviR (LuxR homologue) (Chromobacterium violaceum, UniProt D3W065)
T1 construct: CviR ORF in pET28a, SUMO + His-tag fusion, E. coli BL21 (DE3), Ni-Sepharose, eluted by ULP proteinase digestion; RED-NHS labelled
Assay: microscale thermophoresis (RED-NHS labelled CviR)
Type: binding

[1] = 50 mM Tris-HCl, 150 mM NaCl, 10 mM MgCl2, 0.05% Tween-20, labelled protein, stated 20 μM CviR

T1 sequence (D3W065 1-265): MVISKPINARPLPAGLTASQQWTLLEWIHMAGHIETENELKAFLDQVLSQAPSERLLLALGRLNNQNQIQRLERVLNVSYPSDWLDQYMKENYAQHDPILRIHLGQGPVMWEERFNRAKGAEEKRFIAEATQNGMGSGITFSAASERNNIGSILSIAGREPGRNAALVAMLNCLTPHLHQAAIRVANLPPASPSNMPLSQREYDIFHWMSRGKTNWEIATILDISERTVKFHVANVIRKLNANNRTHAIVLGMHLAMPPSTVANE

Row | Structure (SMILES) | Kd [1] | Kd
1 | O=C(/C=C/c1ccc(O)c(O)c1)c1ccc(O)cc1O [BN1, Butein] | MST results suggested that all the QSIs except C7X have significant binding ability | 
2 | CC(C)=CCc1cc2c(cc1O)O[C@H](c1ccc(O)cc1)CC2=O [BN2, Bavachin] |  | 0.0451 ± 0.0019 µM
3 | Oc1ccc2c(c1)OC[C@](O)(Cc1ccc(O)c(O)c1)[C@H]2O [SPL, Sappanol] | MST results suggested that all the QSIs except C7X have significant binding ability | 
